US20240299303A1, “NANOSTRUCTURE OR MICROSTRUCTURE AND METHOD FOR PRODUCING SAME” (The University of Tokyo, priority 2021, published 2024)

How the values were obtained:
Type in all cases: physicochemical
[1] = Introduction of molecules into crosslinked body of porous microstructural body (UV-visible, supernatant); settings: adsorption from aqueous dispersion; Example 10
Procedure: A low-molecular weight compound was added, and caused to adsorb, to the aqueous dispersion of the porous γ-PPG4k-Plate crosslinked body, and then the porous γ-PPG4k-Plate crosslinked body was sedimented by centrifugation. The concentration of the low-molecular weight compound present in the supernatant liquid obtained at that time was determined by a UV-visible spectral method. Thus, the amount of the low-molecular weight compound adsorbing to the porous γ-PPG4k-Plate crosslinked body was determined.

[2] = Introduction of compounds into nanosheets, absorbance of supernatant after centrifugation; settings: for introduction amount relative to the weight of the nanosheets: Examples 4-8; for introduction amount relative to the weight of the nanosheets / Weight of introduced compound/weight of nanosheets: crosslinked β-cyclodextrin nanosheets; for Weight of introduced compound/weight of nanosheets: Table 1; for Concentration of introduced compound before introduction: in nanosheet dispersion, defined in consideration of dilution with moisture in the dispersion; for Concentration of introduced compound before introduction / Concentration of introduced compound after introduction: nanosheets 43 mg/mL (Examples 4-6) or 17 mg/mL (Examples 7-8); for amount of compound introduced into the nanosheets (reduction in concentration before and after introduction): nanosheets 43 mg/mL (Examples 4-6) or 17 mg/mL (Example 8); for Concentration of introduced compound after introduction: supernatant after shaking at room temperature 48 hours and centrifugation, absorbance
Procedure: 700 Microliters of an aqueous solution (300 μg/mL) of 5-fluorouracil was added to 500 mg of the nanosheet dispersion-1 obtained in Example 1, and the mixture was shaken at room temperature for 48 hours. The nanosheet dispersion having introduced thereinto 5-fluorouracil was centrifuged (at 12,000 rpm for 10 minutes), and the supernatant liquid was collected.
The introduction amount of 5-fluorouracil was determined by the same process as that of Example 4 except that a concentration-absorbance calibration curve was produced at a predetermined wavelength (λ=270 nm).
700 Microliters of an aqueous solution (100 μg/mL) of hydrocortisone was added to 500 mg of the nanosheet dispersion-1 obtained in Example 1, and the mixture was shaken at room temperature for 48 hours. The nanosheet dispersion having introduced thereinto hydrocortisone was centrifuged (at 12,000 rpm for 10 minutes), and the supernatant liquid was collected.
The introduction amount of hydrocortisone was determined by the same process as that of Example 4 except that a concentration-absorbance calibration curve was produced at a predetermined wavelength (λ250 nm).
500 Microliters of an aqueous solution (30 μg/mL) of betamethasone was added to 100 mg of the nanosheet dispersion-1 obtained in Example 1, and the mixture was shaken at room temperature for 48 hours. The nanosheet dispersion having introduced thereinto betamethasone was centrifuged (at 12,000 rpm for 10 minutes), and the supernatant liquid was collected.
The introduction amount of betamethasone was determined by the same process as that of Example 4 except that a concentration-absorbance calibration curve was produced at a predetermined wavelength (λ=250 nm).
500 Microliters of an aqueous solution (30 μg/mL) of menadione was added to 100 mg of the nanosheet dispersion-1 obtained in Example 1, and the mixture was shaken at room temperature for 48 hours. The nanosheet dispersion having introduced thereinto menadione was centrifuged (at 12,000 rpm for 10 minutes), and the supernatant liquid was collected.
The introduction amount of menadione was determined by the same process as that of Example 4 except that a concentration-absorbance calibration curve was produced at a predetermined wavelength (λ=250 nm).

[3] = Introduction of molecules into porous nanosheet crosslinked body (UV-visible, supernatant); settings: adsorption from aqueous dispersion; Example 9
Procedure: A low-molecular weight compound was added, and caused to adsorb, to the aqueous dispersion of the porous γ-plu108-NS crosslinked body, and then the porous γ-plu108-NS crosslinked body was sedimented by centrifugation. The concentration of the low-molecular weight compound present in the supernatant liquid obtained at that time was determined by a UV-visible spectral method. Thus, the amount of the low-molecular weight compound adsorbing to the porous γ-plu108-NS crosslinked body was determined.

[4] = Introduction of rhodamine B into crosslinked nanosheets (fluorescence microscope); settings: rhodamine B 100 μg/mL aqueous solution, shaken room temperature 24 hours, diluted fivefold
Procedure: 900 Microliters of an aqueous solution (100 μg/mL) of rhodamine B was added to 50 mg of the nanosheet dispersion-1 (sample IT-162) obtained in Example 1, and the mixture was shaken at room temperature for 24 hours. […] The results are shown in FIG. 10(A) and FIG. 10(B), respectively. The crystal structures of nanosheets were able to be observed with the phase-contrast microscope.

[5] = Introduction of rhodamine B into uncrosslinked nanosheets (fluorescence microscope); settings: rhodamine B 1,000 μg/mL aqueous solution, shaken room temperature 24 hours
Procedure: 100 Microliters of an aqueous solution (1,000 μg/mL) of rhodamine B was added to 90 mL of the uncrosslinked nanosheet dispersion (sample IT-142) obtained in Comparative Example 1, and the mixture was shaken at room temperature for 24 hours. […] The results are shown in FIG. 11(A) and FIG. 11(B), respectively. The crystal structures of nanosheets were able to be observed with the phase-contrast microscope.

Structure (SMILES) | introduction into the porous γ-PPG4k-Plate crosslinked body [1] | introduction amount relative to the weight of the nanosheets [2] | Weight of introduced compound/weight of nanosheets [2] | Concentration of introduced compound before introduction [2] | amount of compound introduced into the nanosheets (reduction in concentration before and after introduction) [2] | Concentration of introduced compound after introduction [2] | further results
CCN[C@H]1C[C@H](C)S(=O)(=O)c2sc(S(N)(=O)=O)cc21 [dorzolamide] | not introduced |  |  |  |  |  | 
O=C(O)c1cccnc1 [nicotinic acid] | not introduced |  |  |  |  |  | 
O=C(O)CCCC[C@@H]1SC[C@@H]2NC(=O)N[C@@H]21 [biotin] | not introduced |  |  |  |  |  | 
O=c1[nH]cc(F)c(=O)[nH]1 [5-Fluorouracil, 5-fluorouracil] |  | 0.10 wt % | 0.10% | 183000 ng/mL | 45 µg/mL | 138000 ng/mL | 
CCCCC/C=C\C/C=C\CCCCCCCC(=O)O [linoleic acid] |  |  |  |  |  |  | ratio of the weight of the low-molecular weight compound to the total sum of the weights of the compound and the porous γ-plu108-NS crosslinked body [3]: 5.3 wt %; ratio of the weight of the low-molecular weight compound to the total sum of the weights of the compound and the porous γ-PPG4k-Plate crosslinked body [1]: 0.9 wt %
C[C@]12CCC(=O)C=C1CC[C@@H]1[C@@H]2[C@@H](O)C[C@@]2(C)[C@H]1CC[C@]2(O)C(=O)CO [Hydrocortisone, hydrocortisone] |  | 0.08 wt % | 0.08% | 61000 ng/mL | 35 µg/mL | 26000 ng/mL | 
CCN(CC)c1ccc2c(-c3ccccc3C(=O)O)c3ccc(=[N+](CC)CC)cc-3oc2c1.[Cl-] [rhodamine B] | not introduced |  |  |  |  |  | fluorescent coloring in the crystal structures (rhodamine B introduction) [4]: fluorescent coloring was observed; fluorescent coloring in the crystal structures (rhodamine B introduction) [5]: almost no fluorescent coloring was observed
O=c1ccc2ccccc2o1 [coumarin] |  |  |  |  |  |  | ratio of the weight of the low-molecular weight compound to the total sum of the weights of the compound and the porous γ-plu108-NS crosslinked body [3]: 0.5 wt %; ratio of the weight of the low-molecular weight compound to the total sum of the weights of the compound and the porous γ-PPG4k-Plate crosslinked body [1]: 0.6 wt %
CC1=CC(=O)c2ccccc2C1=O [Menadione, menadione] |  | 0.09 wt % | 0.09% | 25000 ng/mL | 15 µg/mL | 10000 ng/mL | 
